# Source: ChEMBL document CHEMBL1128029, “Synthesis and biological properties of a new series of anti-MRSA -lactams; 2-(thiazol-2-ylthio)carbapenems” (Bioorg Med Chem Lett, 1994)
# Assays:
# Staphylococcus aureus [1] = experiment: In vitro minimum inhibitory concentration against Staphylococcus aureus MS9408; format: functional
# Klebsiella pneumoniae = experiment: In vitro minimum inhibitory concentration against Klebsiella pneumoniae ATCC 10031; format: functional
# Escherichia coli = experiment: In vitro minimum inhibitory concentration against Escherichia coli NIHJ JC-2; format: functional
# Staphylococcus aureus [2] = experiment: In vitro minimum inhibitory concentration against Staphylococcus aureus 209p; format: functional
# [3] = tested on: Staphylococcus epidermidis; experiment: In vitro minimum inhibitory concentration against Staphylococcus epidermidis IAM1296; format: functional
# Albumin = Albumin (Homo sapiens, UniProt P02768); experiment: Binding affinity towards Human Serum albumin.
# Staphylococcus aureus [4] = experiment: In vitro minimum inhibitory concentration against Staphylococcus aureus SP-7928; format: functional
# [5] = target: T1, Dipeptidase 1 (Sus scrofa) (UniProt P22412); experiment: Time of enzyme-catalyzed hydrolysis from 500 uM to 400 uM in the presence of purified renal DHP-1 of swine
# T1 sequence (whole entry): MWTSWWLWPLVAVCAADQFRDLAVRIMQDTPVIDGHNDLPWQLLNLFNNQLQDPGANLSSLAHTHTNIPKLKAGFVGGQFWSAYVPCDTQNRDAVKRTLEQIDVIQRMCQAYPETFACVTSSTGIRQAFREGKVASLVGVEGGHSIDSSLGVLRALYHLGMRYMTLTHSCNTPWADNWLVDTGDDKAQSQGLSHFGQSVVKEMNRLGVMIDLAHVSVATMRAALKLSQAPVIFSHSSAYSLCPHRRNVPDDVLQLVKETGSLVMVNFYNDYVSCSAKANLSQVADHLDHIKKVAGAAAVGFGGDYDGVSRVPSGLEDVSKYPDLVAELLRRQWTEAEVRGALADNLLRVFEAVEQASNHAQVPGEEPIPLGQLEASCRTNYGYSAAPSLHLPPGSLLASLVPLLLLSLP
# Sequence of Albumin (P02768 whole entry): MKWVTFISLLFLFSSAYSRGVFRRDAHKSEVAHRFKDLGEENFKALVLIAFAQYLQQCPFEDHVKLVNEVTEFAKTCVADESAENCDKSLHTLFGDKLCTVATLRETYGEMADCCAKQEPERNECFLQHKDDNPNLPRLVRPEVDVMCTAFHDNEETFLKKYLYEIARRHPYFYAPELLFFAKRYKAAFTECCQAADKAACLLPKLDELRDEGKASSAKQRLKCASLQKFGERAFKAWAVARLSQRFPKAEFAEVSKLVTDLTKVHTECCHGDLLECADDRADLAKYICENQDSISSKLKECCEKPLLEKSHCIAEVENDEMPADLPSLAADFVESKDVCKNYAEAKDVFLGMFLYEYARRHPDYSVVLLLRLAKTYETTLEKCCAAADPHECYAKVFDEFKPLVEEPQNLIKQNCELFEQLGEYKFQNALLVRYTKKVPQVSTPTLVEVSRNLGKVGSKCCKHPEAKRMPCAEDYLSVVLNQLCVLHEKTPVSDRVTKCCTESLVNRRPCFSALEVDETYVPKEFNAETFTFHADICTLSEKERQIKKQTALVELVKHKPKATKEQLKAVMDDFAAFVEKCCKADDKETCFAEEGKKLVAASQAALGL
SMILES,MIC (Staphylococcus aureus [1]) [µg/mL],MIC (Klebsiella pneumoniae) [µg/mL],MIC (Escherichia coli) [µg/mL],MIC (Staphylococcus aureus [2]) [µg/mL],MIC [3] [µg/mL],Binding (Albumin) [%],MIC (Staphylococcus aureus [4]) [µg/mL],TIME [5] [h]
C[C@@H](O)[C@H]1C(=O)N2C(C(=O)O)=C(Sc3nc(-c4ccc(CN)cc4)cs3)[C@H](C)[C@H]12,0.2,0.2,1.56,< 0.006,0.025,87,1.56,–
C[C@@H](O)[C@H]1C(=O)N2C(C(=O)O)=C(SCCN=CN)C[C@H]12 [IMIPENEM ANHYDROUS],–,–,–,–,–,< 10,–,–
C[C@@H](O)[C@H]1C(=O)N2C(C(=O)O)=C(SCCNC=N)C[C@H]12 [IMIPENEM ANHYDROUS],0.78,0.1,0.1,0.013,0.2,–,50,0.2
Cc1nc(SC2=C(C(=O)O)N3C(=O)[C@H]([C@@H](C)O)[C@H]3[C@H]2C)sc1C,0.78,0.2,3.13,0.025,0.1,> 75,6.25,0.383
C[C@@H](O)[C@H]1C(=O)N2C(C(=O)[O-])=C(Sc3nc(-c4cc[n+](CC(N)=O)cc4)cs3)[C@H](C)[C@H]12,0.2,0.025,0.2,< 0.006,0.05,15,1.56,0.35
C[C@@H](O)[C@H]1C(=O)N2C(C(=O)O)=C(Sc3nc(-c4cccnc4)cs3)[C@H](C)[C@H]12,0.2,0.05,6.25,< 0.013,0.025,97,1.56,0.0533
C[C@@H](O)[C@H]1C(=O)N2C(C(=O)O)=C(Sc3nc(-c4ccc(C(N)=O)cc4)cs3)[C@H](C)[C@H]12,0.2,0.1,6.25,< 0.006,0.025,99,1.56,0.2
C[C@@H](O)[C@H]1C(=O)N2C(C(=O)[O-])=C(Sc3nc(-c4ccc[n+](CC(N)=O)c4)cs3)[C@H](C)[C@H]12,0.2,0.05,0.39,< 0.006,0.025,24,1.56,0.283
C[C@@H](O)[C@H]1C(=O)N2C(C(=O)O)=C(Sc3nc(-c4ccc5ccncc5c4)cs3)[C@H](C)[C@H]12,0.1,0.2,12.5,< 0.006,0.025,99,0.78,0.162
CCCc1csc(SC2=C(C(=O)O)N3C(=O)[C@H]([C@@H](C)O)[C@H]3[C@H]2C)n1,0.39,0.2,12.5,0.025,0.05,96,3.13,0.2
C[C@@H](O)[C@H]1C(=O)N2C(C(=O)[O-])=C(Sc3nc(-c4ccc5cc[n+](C)cc5c4)cs3)[C@H](C)[C@H]12,0.05,0.05,3.13,< 0.006,0.013,59,0.78,0.2
C[C@@H](O)[C@H]1C(=O)N2C(C(=O)O)=C(Sc3nc(-c4ccncc4)cs3)[C@H](C)[C@H]12,0.2,0.2,6.25,< 0.013,0.05,97,3.13,0.267
Cc1csc(SC2=C(C(=O)O)N3C(=O)[C@H]([C@@H](C)O)[C@H]3[C@H]2C)n1,0.39,0.05,3.13,0.025,0.05,93,3.13,0.217
C[C@@H](O)[C@H]1C(=O)N2C(C(=O)O)=C(Sc3nc(-c4ccc(Cl)cc4)cs3)[C@H](C)[C@H]12,0.2,0.2,12.5,< 0.013,0.025,> 94,1.56,0.165
C[C@@H](O)[C@H]1C(=O)N2C(C(=O)O)=C(Sc3nc(-c4ccc(N)cc4)cs3)[C@H](C)[C@H]12,0.2,0.05,6.25,< 0.013,0.025,98,1.56,0.3
C[C@@H](O)[C@H]1C(=O)N2C(C(=O)O)=C(Sc3nc4ccccc4s3)[C@H](C)[C@H]12,0.78,0.78,25,0.025,0.2,> 94,3.13,–
C[C@@H](O)[C@H]1C(=O)N2C(C(=O)O)=C(Sc3ncc(-c4ccccc4)s3)[C@H](C)[C@H]12,0.39,0.39,25,< 0.006,0.39,> 94,12.5,0.25
C[C@@H](O)[C@H]1C(=O)N2C(C(=O)O)=C(Sc3nccs3)[C@H](C)[C@H]12,0.78,0.05,0.78,0.025,0.1,69,12.5,0.25
Cc1ccc(-c2csc(SC3=C(C(=O)O)N4C(=O)[C@H]([C@@H](C)O)[C@H]4[C@H]3C)n2)cc1,0.2,0.39,12.5,< 0.006,0.025,> 94,3.13,0.153
C[C@@H](O)[C@H]1C(=O)N2C(C(=O)[O-])=C(Sc3nc(-c4ccc[n+](C)c4)cs3)[C@H](C)[C@H]12,0.2,0.05,0.39,< 0.013,0.025,7.8,1.56,0.467
C[C@@H](O)[C@H]1C(=O)N2C(C(=O)O)=C(Sc3nc(-c4ccccc4)cs3)[C@H](C)[C@H]12,0.1,0.1,6.25,< 0.013,0.025,> 94,0.78,0.163
C[C@@H](O)[C@H]1C(=O)N2C(C(=O)[O-])=C(Sc3nc(-c4cc[n+](C)cc4)cs3)[C@H](C)[C@H]12,0.1,0.025,0.39,< 0.006,0.025,12,1.56,0.383
